Assay results taken from article PMC7997579, “Synthetic Lethality in Pancreatic Cancer: Discovery of a New RAD51-BRCA2 Small Molecule Disruptor That Inhibits Homologous Recombination and Synergizes with Olaparib” (Journal of Medicinal Chemistry, 2020).

Test system: Capan-1 cells
Assay: Cell viability assay (antiproliferative effect), association with olaparib
Type: cell-based, human
Method: Finally, the antiproliferative effect of the 35d/olaparib combination was also studied on the HR-defective Capan-1 culture and on a non-neoplastic cell line derived from human kidney (HK-2). Moreover, to evaluate the antineoplastic potency of the 35d/olaparib association, we also calculated the combination index (CI) of the two compounds, using the procedure previously described[30],[31] (Figure 9).
Cell viability was assessed with the CellTiter-Glo luminescent cell viability assay from Promega. For this experiment, 1 × 10^4 cells in 200 μL of culture medium were seeded into each well of a 96-multiwell white body plate and allowed to adhere overnight. After 72 h incubation in the presence of olaparib (10 μM) and the RAD51-BRCA2 disruptors alone or in combination, the plate was allowed to equilibrate at room temperature for 30 min and the CellTiter-Glo reactive was directly added to each well. The plate was kept on a shaker for 10 min to induce cell lysis, and its luminescence was measured with a Fluoroskan Ascent FL reader (Labsystems).

CCC(=O)N1N=C(c2c(-c3ccccc3)c3cc(Cl)ccc3[nH]c2=O)CC1c1ccc(OC)cc1 (centres unmarked) [Compound 35d, 6-Chloro-3-(5-(4-methoxyphenyl)-1-propionyl-4,5-dihydro-1H-pyrazol-3-yl)-4-phenylquinolin-2(1H)-one]
antiproliferative effect of 35d/olaparib (Capan-1, 72 h, 10 μM olaparib, two-way ANOVA): significantly increased antiproliferative effects
combination index (CI) with olaparib (Capan-1, all tested doses of 35d + 10 μM olaparib): ~1
